Measurements taken from the supplement of paper PMC10307832.

Legend:
Assay in all cases: relative viability (nuclei count vs DMSO), 5 days (fraction); higher = more cells survive
[1] = test system: HCC-44
Procedure, shortened: (§1)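 Lung cancer cell lines, seeded in 1536-well plates, were treated the following day by pin tool with a single drug or with five library-drug doses (not always all listed) in √10 steps on top of a fixed anchor-drug dose. Cells were fixed and nuclei stained in one step after 5 days, and nuclei were counted. Relative viability is the nuclei count for treated wells divided by that for vehicle wells, reported as medians of duplicate plates.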

[2] = test system: PC-3 [JPC-3]
Procedure, shortened: as §1

[3] = test system: NCI-H2085
Procedure, shortened: as §1

[4] = test system: SW 1573
Procedure, shortened: as §1

[5] = test system: BEN
Procedure, shortened: as §1

[6] = test system: LCLC-97TM1
Procedure, shortened: as §1

[7] = test system: EPLC-272H
Procedure, shortened: as §1

[8] = test system: NCI-H2087
Procedure, shortened: as §1

[9] = test system: H3255
Procedure, shortened: as §1

[10] = test system: NCI-H1437
Procedure, shortened: as §1

[11] = test system: NCI-H647
Procedure, shortened: as §1

[12] = test system: NCI-H358
Procedure, shortened: as §1

[13] = test system: NCI-H1666
Procedure, shortened: as §1

[14] = test system: LOU-NH91
Procedure, shortened: as §1

[15] = test system: HOP-62
Procedure, shortened: as §1

[16] = test system: HCC-827
Procedure, shortened: as §1

[17] = test system: COR-L 105
Procedure, shortened: as §1

[18] = test system: 201T
Procedure, shortened: as §1

[19] = test system: NCI-H1975
Procedure, shortened: as §1

[20] = test system: NCI-H1395
Procedure, shortened: as §1

[21] = test system: EKVX
Procedure, shortened: as §1

[22] = test system: NCI-H2126
Procedure, shortened: as §1

[23] = test system: LU99A
Procedure, shortened: as §1

## C[C@@H]1CN(CC(=O)Nc2ccc3c(c2)Cc2cccc(-c4cc(=O)cc(N5CCOCC5)o4)c2S3)C[C@H](C)O1 + CS(=O)(=O)N1CCN(Cc2cc3nc(-c4cccc5[nH]ncc45)nc(N4CCOCC4)c3s2)CC1 [Pictilisib] (partner 1 µM)
[1]; first compound 0.04 µM
  relative viability: 0.616
[1]; first compound 0.1265 µM
  relative viability: 0.573
[1]; first compound 0.4 µM
  relative viability: 0.465
[1]; first compound 4 µM
  relative viability: 0.287
[2]; first compound 0.04 µM
  relative viability: 0.714
[2]; first compound 0.1265 µM
  relative viability: 0.724
[2]; first compound 0.4 µM
  relative viability: 0.801
[2]; first compound 4 µM
  relative viability: 0.669
[3]; first compound 0.04 µM
  relative viability: 0.476
[3]; first compound 0.1265 µM
  relative viability: 0.484
[3]; first compound 0.4 µM
  relative viability: 0.425
[3]; first compound 4 µM
  relative viability: 0.492
[4]; first compound 0.04 µM
  relative viability: 0.536
[4]; first compound 0.1265 µM
  relative viability: 0.531
[4]; first compound 0.4 µM
  relative viability: 0.489
[4]; first compound 4 µM
  relative viability: 0.486
[5]; first compound 0.04 µM
  relative viability: 0.556
[5]; first compound 0.1265 µM
  relative viability: 0.537
[5]; first compound 0.4 µM
  relative viability: 0.601
[5]; first compound 4 µM
  relative viability: 0.513
[6]; first compound 0.1265 µM
  relative viability: 0.191
[6]; first compound 0.4 µM
  relative viability: 0.144
[6]; first compound 4 µM
  relative viability: 0.18
[7]; first compound 0.04 µM
  relative viability: 0.272
[7]; first compound 0.1265 µM
  relative viability: 0.305
[7]; first compound 0.4 µM
  relative viability: 0.3
[7]; first compound 4 µM
  relative viability: 0.289
[8]; first compound 0.04 µM
  relative viability: 1.05
[8]; first compound 0.1265 µM
  relative viability: 0.806
[8]; first compound 0.4 µM
  relative viability: 1.02
[8]; first compound 4 µM
  relative viability: 0.541
[9]; first compound 0.04 µM
  relative viability: 0.483
[9]; first compound 0.1265 µM
  relative viability: 0.535
[9]; first compound 0.4 µM
  relative viability: 0.452
[9]; first compound 4 µM
  relative viability: 0.446
[10]; first compound 0.04 µM
  relative viability: 0.416
[10]; first compound 0.1265 µM
  relative viability: 0.45
[10]; first compound 0.4 µM
  relative viability: 0.339
[10]; first compound 4 µM
  relative viability: 0.477
[11]; first compound 0.04 µM
  relative viability: 0.258
[11]; first compound 0.1265 µM
  relative viability: 0.397
[11]; first compound 0.4 µM
  relative viability: 0.204
[11]; first compound 4 µM
  relative viability: 0.393
[12]; first compound 0.04 µM
  relative viability: 0.355
[12]; first compound 0.1265 µM
  relative viability: 0.343
[12]; first compound 0.4 µM
  relative viability: 0.3
[12]; first compound 4 µM
  relative viability: 0.247
[13]; first compound 0.04 µM
  relative viability: 0.444
[13]; first compound 0.1265 µM
  relative viability: 0.298
[13]; first compound 0.4 µM
  relative viability: 0.439
[13]; first compound 4 µM
  relative viability: 0.29
[14]; first compound 0.04 µM
  relative viability: 0.554
[14]; first compound 0.1265 µM
  relative viability: 0.529
[14]; first compound 0.4 µM
  relative viability: 0.505
[14]; first compound 4 µM
  relative viability: 0.539
[15]; first compound 0.04 µM
  relative viability: 0.359
[15]; first compound 0.1265 µM
  relative viability: 0.626
[15]; first compound 0.4 µM
  relative viability: 0.753
[15]; first compound 4 µM
  relative viability: 0.605
[16]; first compound 0.04 µM
  relative viability: 0.987
[16]; first compound 0.1265 µM
  relative viability: 1.03
[16]; first compound 0.4 µM
  relative viability: 1.22
[16]; first compound 4 µM
  relative viability: 0.995
[17]; first compound 0.04 µM
  relative viability: 0.344
[17]; first compound 0.1265 µM
  relative viability: 0.402
[17]; first compound 0.4 µM
  relative viability: 0.375
[17]; first compound 4 µM
  relative viability: 0.414
[18]; first compound 0.04 µM
  relative viability: 0.668
[18]; first compound 0.1265 µM
  relative viability: 0.65
[18]; first compound 0.4 µM
  relative viability: 0.652
[18]; first compound 4 µM
  relative viability: 0.647
[19]; first compound 0.04 µM
  relative viability: 0.32
[19]; first compound 0.1265 µM
  relative viability: 0.263
[19]; first compound 0.4 µM
  relative viability: 0.279
[19]; first compound 4 µM
  relative viability: 0.298
[20]; first compound 0.04 µM
  relative viability: 0.66
[20]; first compound 0.1265 µM
  relative viability: 0.556
[20]; first compound 0.4 µM
  relative viability: 0.502
[20]; first compound 4 µM
  relative viability: 0.559
[21]; first compound 0.04 µM
  relative viability: 0.412
[21]; first compound 0.1265 µM
  relative viability: 0.444
[21]; first compound 0.4 µM
  relative viability: 0.414
[21]; first compound 4 µM
  relative viability: 0.428
[22]; first compound 0.04 µM
  relative viability: 0.536
[22]; first compound 0.1265 µM
  relative viability: 0.49
[22]; first compound 0.4 µM
  relative viability: 0.459
[22]; first compound 4 µM
  relative viability: 0.487
[23]; first compound 0.04 µM
  relative viability: 0.313
[23]; first compound 0.1265 µM
  relative viability: 0.382
[23]; first compound 0.4 µM
  relative viability: 0.349
[23]; first compound 4 µM
  relative viability: 0.378
